# Calls of active or inactive are those of the source. No cut-off for these calls is given here.
# Tests used:
# [1] = Induction of hemolysis in rabbit RBC at 64 ug/ml incubated for 1 hr; type: toxicity, cell-based, Oryctolagus cuniculus, Erythrocyte; details: red blood cells, dose 64 µg/ml, read-out: Activity
# Candida albicans [2] = experiment: Antifungal activity against Candida albicans 25#; type: functional
# Candida albicans [3] = experiment: Antifungal activity against Candida albicans 14#; type: functional
# [4] = molecular target: T1, Lanosterol 14-alpha demethylase (Candida albicans (strain SC5314 / ATCC MYA-2876) (Yeast), UniProt P10613); experiment: Inhibition of CYP51 in Candida albicans SC5314 assessed as sterol level at 0.0625 ug/ml measured after 12 hrs by GC-MS analysis (reference value: 25.23%); parameters: scale not given: the % may be the effect or the level left; details: dose 0.0625 µg/ml
# [Candida] auris [5] = Antifungal activity against Candida auris D12; type: functional; details: Candidozyma auris
# Candida albicans [6] = experiment: Inhibition of biofilm formation in Candida albicans SC5314 at 0.002 ug/ml relative to control; type: functional
# Candida albicans [7] = experiment: Antifungal activity against Candida albicans 162; type: functional
# [8] = molecular target: T1, Lanosterol 14-alpha demethylase; experiment: Inhibition of CYP51 in Candida albicans SC5314 assessed as ergosterol level at 0.0625 ug/ml measured after 12 hrs by GC-MS analysis (reference value: 72.58%); parameters: scale not given: the % may be the effect or the level left; details: dose 0.0625 µg/ml
# Candida albicans [9] = experiment: Antifungal activity against Candida albicans SC5314 infected in ICR mouse assessed as delay in mortality at 0.25 to 0.5 mg/kg, po qd infected with fungus for 2 hrs prior to compound addition for 7 days and measured for 20 days; type: functional, organism-based; details: dose 0.25-0.5 mg/kg, time 20.0 day
# [Candida] auris [10] = Antifungal activity against Candida auris 791; type: functional; details: Candidozyma auris
# Candida albicans [11] = experiment: Antifungal activity against Candida albicans 305; type: functional
# [Candida] auris [12] = Antifungal activity against Candida auris 887; type: functional; details: Candidozyma auris
# Trichophyton rubrum = experiment: Antifungal activity against Trichophyton rubrum cmccftla; type: functional
# Nakaseomyces glabratus = experiment: Antifungal activity against Candida glabrata ATCC2001; type: functional
# [13] = Half life in Sprague-Dawley rat at 5 mg/kg, po by LC-MS analysis; type: ADME, organism-based; details: in vivo
# Pichia kudriavzevii [14] = experiment: Antifungal activity against Candida krusei 629; type: functional
# [15] = Half life in Sprague-Dawley rat at 2 mg/kg, iv by LC-MS analysis; type: ADME, organism-based; details: in vivo
# [16] = Clearance in Sprague-Dawley rat at 2 mg/kg, iv by LC-MS analysis; details: in vivo
# Candida albicans [17] = experiment: Antifungal activity against Candida albicans SC5314 incubated for 24 hrs by microbroth dilution method; type: functional
# [18] = AUC(0 to infinity) in Sprague-Dawley rat at 5 mg/kg, po by LC-MS analysis; type: ADME, organism-based; parameters: time infinity, dose 5 mg/kg, route po; details: in vivo
# Aspergillus fumigatus [19] = experiment: Antifungal activity against Aspergillus fumigatus 7544 infected in ICR mouse assessed as delay in mortality at 20 to 60 mg/kg, po qd infected with fungus for 2 hrs prior to compound addition for 7 days and measured for 20 days; type: functional, organism-based; details: dose 20-60 mg/kg, time 20.0 day
# Cryptococcus neoformans [20] = experiment: Antifungal activity against Cryptococcus neoformans H99 infected in po dosed ICR mouse assessed as increase in survival infected with fungus for 2 hrs prior to compound addition for 7 days and measured for 20 days; type: functional, organism-based; details: dose 0.5-5 mg/kg, time 20.0 day, DDE = dose-dependent effect
# Cryptococcus neoformans [21] = experiment: Antifungal activity against Cryptococcus neoformans H99 infected in ICR mouse assessed as median survival time at 0.5 mg/kg, po qd infected with fungus for 2 hrs prior to compound addition for 7 days and measured for 20 days; type: functional; details: time 20 day
# Cryptococcus neoformans [22] = experiment: Antifungal activity against Cryptococcus neoformans 32605; type: functional
# Cryptococcus neoformans [23] = experiment: Antifungal activity against Cryptococcus neoformans H99 infected in ICR mouse assessed as median survival time at 1 mg/kg, po qd infected with fungus for 2 hrs prior to compound addition for 7 days and measured for 20 days; type: functional; details: time 20 day
# Candida tropicalis = experiment: Antifungal activity against Candida tropicalis ATCC750; type: functional
# Cryptococcus neoformans [24] = experiment: Antifungal activity against Cryptococcus neoformans H99 infected in ICR mouse assessed as median survival time at 2 mg/kg, po qd infected with fungus for 2 hrs prior to compound addition for 7 days and measured for 20 days; type: functional; details: time 20 day
# Aspergillus fumigatus [25] = experiment: Antifungal activity against Aspergillus fumigatus 7544 incubated for 48 hrs by microbroth dilution method; type: functional
# Candida albicans [26] = experiment: Antifungal activity against Candida albicans Y0109; type: functional
# Cryptococcus neoformans [27] = experiment: Antifungal activity against Cryptococcus neoformans H99 infected in ICR mouse assessed as delay in mortality at 0.5 to 5 mg/kg, po qd infected with fungus for 2 hrs prior to compound addition for 7 days and measured for 20 days; type: functional, organism-based; details: dose 0.5-5 mg/kg, time 20.0 day
# Candida parapsilosis = experiment: Antifungal activity against Candida parapsilosis 90018; type: functional; details: Lodderomyces parapsilosis
# Nannizzia gypsea = experiment: Antifungal activity against Microsporum gypseum; type: functional
# [28] = molecular target: T1, Lanosterol 14-alpha demethylase; experiment: Inhibition of CYP51 in Candida albicans SC5314 assessed as ergosterol level at 0.5 ug/ml measured after 12 hrs by GC-MS analysis (reference value: 72.58%); parameters: scale not given: the % may be the effect or the level left; details: at 0.5 µg/mL
# Pichia kudriavzevii [29] = experiment: Antifungal activity against Candida krusei 463; type: functional
# [30] = Oral bioavailability in Sprague-Dawley rat at 5 mg/kg by LC-MS analysis; type: ADME, organism-based; details: in vivo
# Candida albicans [31] = experiment: Antifungal activity against Candida albicans 100 infected in ICR mouse assessed as delay in mortality at 0.25 mg/kg, po qd infected with fungus for 2 hrs prior to compound addition for 7 days and measured for 20 days; type: functional, organism-based; details: time 20.0 day
# Candida albicans [32] = experiment: Antifungal activity against Candida albicans SC5314 infected in ICR mouse assessed as median survival time at 0.25 mg/kg, po qd infected with fungus for 2 hrs prior to compound addition for 7 days and measured for 20 days; type: functional; details: time 20 day
# Candida albicans [33] = experiment: Antifungal activity against Candida albicans 12#; type: functional
# Aspergillus fumigatus [34] = experiment: Antifungal activity against Aspergillus fumigatus 7544 infected in ICR mouse assessed as survival rate at 20 mg/kg, po qd infected with fungus for 2 hrs prior to compound addition for 7 days and measured for 20 days; type: functional; details: time 20 day
# Candida albicans [35] = experiment: Antifungal activity against Candida albicans 20#; type: functional
# Aspergillus fumigatus [36] = experiment: Antifungal activity against Aspergillus fumigatus 7544 infected in ICR mouse assessed as survival rate at 60 mg/kg, po qd infected with fungus for 2 hrs prior to compound addition for 7 days and measured for 20 days; type: functional; details: time 20 day
# Candida albicans [37] = experiment: Antifungal activity against Candida albicans SC5314 infected in ICR mouse assessed as median survival time at 0.5 mg/kg, po qd infected with fungus for 2 hrs prior to compound addition for 7 days and measured for 20 days; type: functional; details: time 20 day
# Candida albicans [38] = experiment: Inhibition of biofilm formation in Candida albicans SC5314 at 0.0625 ug/ml relative to control; type: functional
# Cryptococcus neoformans [39] = experiment: Antifungal activity against Cryptococcus neoformans H99 incubated for 72 hrs by microbroth dilution method; type: functional
# Pichia kudriavzevii [40] = experiment: Antifungal activity against Candida krusei 467; type: functional
# Candida albicans [41] = experiment: Inhibition of biofilm formation in Candida albicans SC5314; type: functional, organism-based; details: dose 0.002-0.5 µg/ml, DDE = dose-dependent effect
# Pichia kudriavzevii [42] = experiment: Antifungal activity against Candida krusei 397; type: functional
# Candida albicans [43] = experiment: Antifungal activity against Candida albicans 100 infected in ICR mouse assessed as median survival time at 0.25 mg/kg, po qd infected with fungus for 2 hrs prior to compound addition for 7 days and measured for 20 days; type: functional; details: time 20 day
# T1 sequence (P10613 whole entry): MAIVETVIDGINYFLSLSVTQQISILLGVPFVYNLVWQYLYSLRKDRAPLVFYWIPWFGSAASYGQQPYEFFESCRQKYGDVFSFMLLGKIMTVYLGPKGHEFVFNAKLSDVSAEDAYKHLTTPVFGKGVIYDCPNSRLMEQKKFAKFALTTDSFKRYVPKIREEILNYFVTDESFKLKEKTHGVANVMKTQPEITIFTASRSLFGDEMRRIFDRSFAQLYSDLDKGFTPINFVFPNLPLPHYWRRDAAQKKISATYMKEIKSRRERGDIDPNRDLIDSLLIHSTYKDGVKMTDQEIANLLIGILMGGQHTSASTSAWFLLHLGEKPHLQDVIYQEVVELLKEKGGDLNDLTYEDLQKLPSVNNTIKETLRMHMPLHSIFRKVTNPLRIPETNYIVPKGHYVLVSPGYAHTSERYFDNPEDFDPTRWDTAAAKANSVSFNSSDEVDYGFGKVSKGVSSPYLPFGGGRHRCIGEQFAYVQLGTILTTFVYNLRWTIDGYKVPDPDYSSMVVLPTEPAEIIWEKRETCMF
smiles,measurement,setting,value
C[C@@H](c1cn(-c2ccc(Cl)cc2F)nn1)[C@](O)(Cn1cncn1)c1ccc(F)cc1F,"hemolysis at 1 h, 64 ug/ml",[1],0.3%
same,MIC,Candida albicans [2],16 µg/mL
same,MIC,Candida albicans [3],8 µg/mL
same,Activity,[4],3.82%
same,MIC,[Candida] auris [5],1 µg/mL
same,inhibition at 0.002 µg/mL,Candida albicans [6],20%
same,MIC,Candida albicans [7],8 µg/mL
same,Activity,[8],0.76%
same,Activity,Candida albicans [9],Active
same,MIC,[Candida] auris [10],1 µg/mL
same,MIC,Candida albicans [11],8 µg/mL
same,MIC,[Candida] auris [12],1 µg/mL
same,MIC,Trichophyton rubrum,0.125 µg/mL
same,MIC,Nakaseomyces glabratus,0.125 µg/mL
same,half-life,[13],1.4 h
same,MIC,Pichia kudriavzevii [14],0.25 µg/mL
same,half-life,[15],4.5 h
same,clearance,[16],1.99 mL/min/kg
same,MIC,Candida albicans [17],0.0625 µg/mL
same,AUC(0-inf),[18],3860 ng·h/mL
same,Activity,Aspergillus fumigatus [19],Active
same,Activity,Cryptococcus neoformans [20],Dde
same,Time,Cryptococcus neoformans [21],10.5 days
same,MIC,Cryptococcus neoformans [22],0.0156 µg/mL
same,Time,Cryptococcus neoformans [23],14 days
same,MIC,Candida tropicalis,8 µg/mL
same,Time,Cryptococcus neoformans [24],8.5 days
same,MIC,Aspergillus fumigatus [25],1 µg/mL
same,MIC,Candida albicans [26],0.0156 µg/mL
same,Activity,Cryptococcus neoformans [27],Active
same,MIC,Candida parapsilosis,≤ 0.0313 µg/mL
same,MIC,Nannizzia gypsea,1 µg/mL
same,Activity,[28],74.56%
same,MIC,Pichia kudriavzevii [29],0.125 µg/mL
same,bioavailability,[30],34%
same,Activity,Candida albicans [31],Active
same,Time,Candida albicans [32],13.5 days
same,MIC,Candida albicans [33],16 µg/mL
same,Activity,Aspergillus fumigatus [34],30%
same,MIC,Candida albicans [35],≤ 0.0313 µg/mL
same,Activity,Aspergillus fumigatus [36],100%
same,Time,Candida albicans [37],17 days
same,inhibition at 0.0625 µg/mL,Candida albicans [38],75%
same,MIC,Cryptococcus neoformans [39],0.0313 µg/mL
same,MIC,Pichia kudriavzevii [40],0.125 µg/mL
same,inhibition,Candida albicans [41],Dde
same,MIC,Pichia kudriavzevii [42],0.125 µg/mL
same,Time,Candida albicans [43],14 days
